According to PMC12566046, “Arylpiperazinyl-Benzocycloheptapyrrole-Carboxamides Endowed with Dual Anticancer and Antiviral Activities” (Molecules, 2025):
Read-outs that look alike come from different tables or passages of the source.

Columns and labels:
[1] = test system: SARS-CoV-2 VR PV10734 (strain Milano); test: microbe, parasite or virus in culture; format: cell-based; conditions: Severe acute respiratory syndrome coronavirus 2; preliminary screening (50, 5, 0.5 μM), Vero TMPRSS; read-out: SARS‐CoV‐2/Vero TMPRSS EC50
[2] = test system: K-562 (leukemia cell line); test: NCI-60 single-dose assay; format: cell-based; conditions: Homo sapiens, K562, read-out: growth inhibition (GI%) and cytotoxicity (negative values)
Description: We first evaluated the cytotoxic activity of tricyclic-pyrrole carboxamides 1–20 using the NCI-60 cell line panel, representing nine different human cancers: leukemia, melanoma, and cancers of the lung, colon, central nervous system (CNS), ovary, kidney, prostate, and breast (the one-dose graph for compounds 1–20 is reported in Supplementary Materials, Figures S43–S62). Compounds 1, 5, 10, 11, 17, and 20 satisfied pre-determined threshold inhibition criteria in a minimum number of cell lines; therefore, they were also tested in the full five-dose assay (Figures S63–S68 in the Supplementary Materials).

[3] = Cytotoxicity on uninfected Huh-7 cells (WST-8, crystal violet); conditions: human, uninfected Huh-7 cells
[4] = test system: CCRF-CEM (leukemia cell line); test: NCI-60 single-dose assay; format: cell-based, human; conditions: Homo sapiens, read-out: growth inhibition (GI%) and cytotoxicity (negative values)
Procedure, shortened: (§1)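 Human cancer lines from nine tumour types in the NCI-60 panel were exposed to one compound dose, and cytotoxic activity was recorded for each line.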

[5] = test system: BT-549 (breast cancer cell line); test: NCI-60 single-dose assay; format: cell-based, human; conditions: Homo sapiens, BT-549, read-out: growth inhibition (GI%) and cytotoxicity (negative values)
Procedure, shortened: as §1

[6] = test system: RXF 393 (renal cancer cell line); test: NCI-60 single-dose assay; format: cell-based, human; conditions: for inhibition at 10 µM: Homo sapiens, RXF 393, read-out: growth inhibition (GI%) and cytotoxicity (negative values)
Procedure, shortened: as §1

[7] = test system: KM12 (colon cancer cell line); test: NCI-60 single-dose assay; format: cell-based, human; conditions: Homo sapiens, KM12, read-out: growth inhibition (GI%) and cytotoxicity (negative values)
Procedure, shortened: as §1

[8] = test system: UACC-257 (melanoma cell line); test: NCI-60 single-dose assay; format: cell-based, human; conditions: for growth inhibition (GI%) and cytotoxicity (negative values): human; for inhibition at 10 µM: Homo sapiens, UACC-257, read-out: growth inhibition (GI%) and cytotoxicity (negative values)
Procedure, shortened: as §1

[9] = test system: HCT-116 (colon cancer cell line); test: NCI-60 single-dose assay; format: cell-based, human; conditions: Homo sapiens, HCT-116, read-out: growth inhibition (GI%) and cytotoxicity (negative values)
Procedure, shortened: as §1

[10] = test system: SW-620 (colon cancer cell line); test: NCI-60 single-dose assay; format: cell-based, human; conditions: for inhibition at 10 µM: Homo sapiens, SW-620, read-out: growth inhibition (GI%) and cytotoxicity (negative values)
Procedure, shortened: as §1

[11] = test system: UACC-62 (melanoma cell line); test: NCI-60 single-dose assay; format: cell-based, human; conditions: for inhibition at 10 µM: Homo sapiens, UACC-62, read-out: growth inhibition (GI%) and cytotoxicity (negative values)
Procedure, shortened: as §1

[12] = test system: SK-MEL-28 (melanoma cell line); test: NCI-60 single-dose assay; format: cell-based, human; conditions: for growth inhibition (GI%) and cytotoxicity (negative values): human; for inhibition at 10 µM: Homo sapiens, SK-MEL-28, read-out: growth inhibition (GI%) and cytotoxicity (negative values)
Procedure, shortened: as §1

[13] = test system: 786-0 (renal cancer cell line); test: NCI-60 single-dose assay; format: cell-based, human; conditions: Homo sapiens, 786-0, read-out: growth inhibition (GI%) and cytotoxicity (negative values)
Procedure, shortened: as §1

[14] = test system: NCI-H460 (non-small cell lung cancer cell line); test: NCI-60 single-dose assay; format: cell-based, human; conditions: Homo sapiens, NCI-H460, read-out: growth inhibition (GI%) and cytotoxicity (negative values)
Procedure, shortened: as §1

[15] = test system: LOX IMVI (melanoma cell line); test: NCI-60 single-dose assay; format: cell-based, human; conditions: for inhibition at 10 µM: Homo sapiens, LOX IMVI, read-out: growth inhibition (GI%) and cytotoxicity (negative values)
Procedure, shortened: as §1

[16] = test system: HL-60(TB) (leukemia cell line); test: NCI-60 single-dose assay; format: cell-based, human; conditions: for growth inhibition (GI%) and cytotoxicity (negative values): human; for inhibition at 10 µM: Homo sapiens, HL-60, read-out: growth inhibition (GI%) and cytotoxicity (negative values)
[17] = test system: HCC-2998 (colon cancer cell line); test: NCI-60 single-dose assay; format: cell-based, human; conditions: for growth inhibition (GI%) and cytotoxicity (negative values): human
Procedure, shortened: as §1

[18] = test system: EKVX (non-small cell lung cancer cell line); test: NCI-60 single-dose assay; format: cell-based, human; conditions: Homo sapiens, read-out: growth inhibition (GI%) and cytotoxicity (negative values)
Procedure, shortened: as §1

[19] = test system: MDA-MB-468 (breast cancer cell line); test: NCI-60 single-dose assay; format: cell-based, human; conditions: for growth inhibition (GI%) and cytotoxicity (negative values): human; for inhibition at 10 µM: Homo sapiens, MDA-MB-468, read-out: growth inhibition (GI%) and cytotoxicity (negative values)
Procedure, shortened: as §1

M14 (melanoma cell line) = test: NCI-60 single-dose assay; format: cell-based, human; conditions: for growth inhibition (GI%) and cytotoxicity (negative values): human; for inhibition at 10 µM: Homo sapiens, M14, read-out: growth inhibition (GI%) and cytotoxicity (negative values)
Procedure, shortened: as §1

[20] = test system: MOLT-4 (leukemia cell line); test: NCI-60 single-dose assay; format: cell-based, human; conditions: Homo sapiens, MOLT-4, read-out: growth inhibition (GI%) and cytotoxicity (negative values)
Procedure, shortened: as §1

[21] = test system: SK-MEL-5 (melanoma cell line); test: NCI-60 single-dose assay; format: cell-based, human; conditions: human
Procedure, shortened: as §1

[22] = test system: ZIKV, strain Brazil/2016/INMI1; test: ZIKV viral yield reduction assay on Huh-7 cells; format: cell-based, Zika virus; conditions: Zika virus
Procedure, shortened: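 Huh-7 cells infected with ZIKV at MOI 1 for 2 h at 37 °C, compounds added right after infection in duplicate at 50, 5 and 0.5 μM. Supernatants taken at 48 h and titrated by plaque assay on VERO E6 under carboxymethyl cellulose with crystal violet staining. % inhibition from PFU/mL versus DMSO-treated control; SI = CC50/EC50.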

NCI-60 cell line panel = test: NCI-60 single-dose assay, whole panel; format: cell-based, human; conditions: summary over the panel
Procedure, shortened: as §1

in vitro = conditions: African green monkey
[23] = preliminary screening (50, 5, 0.5 μM), Huh-7, read-out: ZIKV/Huh‐7 EC50

SMILES | inhibition at 10 µM [2] [%] | CC50 at 48 h [3] [µM] | inhibition at 10 µM [4] [%] | inhibition at 10 µM [5] [%] | inhibition at 10 µM [6] [%] | inhibition at 10 µM [7] [%] | inhibition at 10 µM [9] [%] | inhibition at 10 µM [13] [%] | inhibition at 10 µM [14] [%] | growth inhibition (GI%) and cytotoxicity (negative values) [16] [%] | growth inhibition (GI%) and cytotoxicity (negative values) [17] [%] | inhibition at 10 µM [18] [%] | inhibition at 10 µM [20] [%] | growth inhibition (GI%) and cytotoxicity (negative values) [21] [%] | EC50 [22, 23] [µM] | growth inhibition (GI%) reached against cancer cell lines of the NCI-60 panel (NCI-60 cell line panel) [%] | CC50 at 24 h (in vitro) [µM] | inhibition at 10 µM [10] [%] | inhibition at 10 µM [11] [%] | inhibition at 10 µM [15] [%] | other results
O=C(NCCCN1CCN(Cc2ccccc2)CC1)c1c(Cl)[nH]c2c1CCCc1ccccc1-2 [Compound 20, N-(3-(4-Benzylpiperazin-1-yl)propyl)-2-chloro-1,4,5,6-tetrahydrobenzo[6,7]cyclohepta[1,2-b]pyrrole-3-carboxamide] | < 60 | 6.23 | < 60 | 68.4 | 78.2 | 70.3 | 95.5 | 87 | 83.1 | −23.10 | −91.84 | 77.2 | < 60 | −89.68 | 4.74 | > 90 | 15.4 | – | – | – | EC50 [1]: 17.7 µM; growth inhibition (GI%) and cytotoxicity (negative values) [8]: −58.02%; growth inhibition (GI%) and cytotoxicity (negative values) ([10]; human): −40.23%; growth inhibition (GI%) and cytotoxicity (negative values) ([11]; human): −59.22%; growth inhibition (GI%) and cytotoxicity (negative values) [12]: −88.58%; growth inhibition (GI%) and cytotoxicity (negative values) ([15]; human): −69.19%; growth inhibition (GI%) and cytotoxicity (negative values) [19]: −29.55%; growth inhibition (GI%) and cytotoxicity (negative values) (M14 (melanoma cell line)): −69.37%
CCOc1ccccc1N1CCN(CCNC(=O)c2c(Cl)[nH]c3c2CCCc2ccccc2-3)CC1 [Compound 17] | 100 | 16.4 | 61.6 | 80.7 | 62.1 | < 60 | 88.9 | < 60 | 70 | −8.21 | −35.63 | 87.5 | 95.5 | −88.73 | 4.46 | > 90 | 37.2 | < 60 | < 60 | 74.3 | inhibition at 10 µM [8]: 72%; inhibition at 10 µM [12]: 71.5%; growth inhibition (GI%) and cytotoxicity (negative values) [19]: −3.78%; growth inhibition (GI%) and cytotoxicity (negative values) (M14 (melanoma cell line)): −7.74%
COc1ccccc1N1CCN(CCNC(=O)c2c(Cl)[nH]c3c2CCCc2ccccc2-3)CC1 [Compound 15] | 92.7 | 9.43 | < 60 | 66.5 | < 60 | < 60 | 65.2 | < 60 | < 60 | – | −18.77 | 81.7 | 76.5 | −75.22 | – | – | 38 | 60.1 | < 60 | 60.6 | EC50 [1]: 40.6 µM; inhibition at 10 µM [8]: 67%; inhibition at 10 µM [12]: < 60%; inhibition at 10 µM [16]: 86.6%; inhibition at 10 µM [19]: 94.8%; inhibition at 10 µM (M14 (melanoma cell line)): 84.8%; EC50 ([22]; Huh-7, read-out: ZIKV/Huh‐7 EC50): 4.74 µM
N#Cc1ccccc1N1CCN(CCNC(=O)c2c(Cl)[nH]c3c2CCCc2ccccc2-3)CC1 [Compound 18, 2-Chloro-N-(2-(4-(2-cyanophenyl)piperazin-1-yl)ethyl)-1,4,5,6-tetrahydrobenzo[6,7]cyclohepta[1,2-b]pyrrole-3-carboxamide] | 75.3 | 15.5 | < 60 | 78.3 | < 60 | < 60 | 70.1 | < 60 | < 60 | – | – | 92.8 | 81.8 | −67.02 | 4.11 | > 90 | 35 | < 60 | < 60 | < 60 | inhibition at 10 µM [8]: < 60%; inhibition at 10 µM [12]: < 60%; inhibition at 10 µM [16]: 74.3%; inhibition at 10 µM ([17]; Homo sapiens, HCC 2998, read-out: growth inhibition (GI%) and cytotoxicity (negative values)): < 60%; inhibition at 10 µM [19]: 98.7%; inhibition at 10 µM (M14 (melanoma cell line)): < 60%
O=C(NCCCN1CCN(c2ccccc2)CC1)c1cc2c([nH]1)-c1ccccc1CCC2 [Compound 10, N-(3-(4-Phenylpiperazin-1-yl)propyl)-1,4,5,6-tetrahydrobenzo[6,7]cyclohepta[1,2-b]pyrrole-2-carboxamide] | 99.4 | 12.4 | 61.2 | < 60 | – | 73.7 | 95.7 | 68.7 | 90.7 | −30.92 | −9.32 | 74.2 | < 60 | −72.58 | 3.59 | > 90 | 55.7 | 80.1 | < 60 | 95.2 | growth inhibition (GI%) and cytotoxicity (negative values) ([6]; human): −8.69%; growth inhibition (GI%) and cytotoxicity (negative values) [8]: −8.50%; growth inhibition (GI%) and cytotoxicity (negative values) [12]: −29.31%; growth inhibition (GI%) and cytotoxicity (negative values) [19]: −13.75%; growth inhibition (GI%) and cytotoxicity (negative values) (M14 (melanoma cell line)): −59.25%
